3 compounds from US4006231A, “N-aminosulfenylated derivatives of carbofuran” (priority 1974, dated 1977) can be followed below.

SMILES strings stand for the structures. In brackets after ≈: the same amount, converted by molar mass.

One data set deals with adult female houseflies. Briefly: whole plant or invertebrate. As to conditions: Musca domestica, topical, 24 h, read-out: Houseflies LD50. On the procedure: Toxicity of the compounds of the present invention to houseflies was tested using the technique described by March and Metcalf (Bull. Calif. State Dept. Agr. 38, No. 2, 93-101 [1949]): Solutions of test compounds in acetone were prepared at a range of concentrations. Adult female houseflies (Muscadomesticus) were treated with one drop of acetone solution, applied to the prothorax, using a syringe calibrated to deliver 1.00 ± 0.05 mm^3 drops. Twenty flies were treated at each dosage, each test compound was applied at 8 to 10 dosage levels. Each test was replicated three times. […] A one-inch square of cotton saturated with 40% sugar solution was provided for food in each carton. The cartons of flies were held in a constant temperature chamber at 60° F and 60% relative humidity for 24 hours before mortality counts were made. Flies totally unable to make crawling or walking movements were counted as dead. LD50 values were calculated in the conventional manner.

Data set [1] has as its system larvae of Culex fatigans (mosquitoes). Kind of data set: Toxicity to mosquitoes, fourth-instar larvae. The following applies: Culex quinquefasciatus, 24 h, read-out: Mosquitoes LC50. On the procedure: Toxicity of the compounds of the present invention to mosquitoes was tested using the technique described by Mulla, Metcalf and Geib (Mosquito News 28, No. 2, 236 [ 1966]): A 1% (w/v) stock solution was prepared by dissolving the test compound in acetone. The appropriate amount of stock solution was added with stirring to 100 ml of tap water and 20-25 fourth-instar larvae of Culex fatigans were placed in the solution. After 24 hours, the counts were taken. Larvae not able to rise to the surface on touch were counted as dead. Each concentration was run in duplicate and each material was run on two or three different days. The average percent mortality was plotted against the logarithm of the concentration (in ppm) and the LC50 value determined by inspection.

Data set [2] can be described thus: Acute oral toxicity to mice. As to conditions: mouse, in vivo. The protocol:
Acute oral toxicity of the compounds of the present invention to mice was determined after the manner of Hollingworth, Fukuto and Metcalf (J. Agr. Food Chem. 15, 235 [ 1967]): Solutions of the compounds at each of a series of concentrations were prepared in olive oil or propylene glycol as solubility required. A dose of 0.25 ml of each solution was administered to each of four female white Swiss mice using the "bolus"-tipped syringe. […] Final mortality determinations were made 48 hours after treatment.

Data set [3] has as its system Mexican bean beetle. Kind of data set: Initial contact activity, Mexican bean beetle. In kind it is in vivo. The following applies: Epilachna varivestis, 48 hours exposure, read-out: % Kill, Mexican bean beetle, Initial. The protocol:
(§1) Initial Contact Activity: One-half gram of test compound was dissolved in 40 ml of acetone and this solution was dispersed in 360 ml of water containing one drop of isooctylphenyl polyethoxyethanol. An aliquot of this solution was diluted with water to provide a solution containing 1250 ppm of active ingredient. […] At this time, the dead and living insects (or mites) were counted and the percent kill was calculated.

Data set [4] concerns southern army worm. Kind of data set: Initial contact activity, southern army worm. In kind it is in vivo, Prodenia eridania. As to conditions: 1250 ppm, 48 hours exposure. On the procedure: as §1
Data set [5] deals with pea aphid. Kind of data set: Initial contact activity, pea aphid. In kind it is in vivo, Macrosiphum pisi. The following applies: Acyrthosiphon pisum, 48 hours exposure, read-out: % Kill, pea aphid, Initial. The protocol: as §1
The test system of data set [6] is two-spotted spider mite. Kind of data set: Initial contact activity, two-spotted spider mite. The format is in vivo. As to conditions: Tetranychus urticae, 48 hours exposure, read-out: % Kill, two-spotted spider mite, Initial. On the procedure: as §1
Data set [7] deals with milkweed bug. Kind of data set: Initial contact activity, milkweed bug. In kind it is in vivo, Oncopeltus fascinatus. As to conditions: Oncopeltus fasciatus, 48 hours exposure, read-out: % Kill, milkweed bug, Initial. On the procedure:
as §1

The subject of data set [8] is plum curculio. Kind of data set: Initial contact activity, plum curculio. In kind it is in vivo. The following applies: Conotrachelus nenuphar, 48 hours exposure, read-out: % Kill, plum curculio, Initial. The protocol:
as §1

The subject of data set [9] is granary weevil. Kind of data set: Initial contact activity, granary weevil. The following applies: Sitophilus granarius, 48 hours exposure, read-out: % Kill, granary weevil, Initial. In kind it is in vivo. The protocol:
as §1

Data set [10] concerns confused flour beetle. Briefly: Initial contact activity, confused flour beetle. The format is in vivo. The following applies: Tribolium confusum, 48 hours exposure, read-out: % Kill, confused flour beetle, Initial. The protocol: as §1
For data set [11], the system named is Mexican bean beetle. Kind of data set: Residual contact activity (7-day), Mexican bean beetle. In kind it is in vivo. The following applies: Epilachna varivestis, 48 h, surface aged seven days, read-out: % Kill, Mexican bean beetle, Residual (7-day). The protocol:
as §1
(§2) Residual Contact Activity: The residual contact activity of the compounds was determined on the same organisms using the technique described above, except that in each case the treated surface was allowed to dry and was exposed to normal light and air for seven days before introduction of the mites or insects. […]

The test system of data set [12] is southern army worm. Kind of data set: Residual contact activity (7-day), southern army worm. In kind it is in vivo, Prodenia eridania. The following applies: 1250 ppm, surface aged seven days; 2880 min. On the procedure: as §1, §2
The subject of data set [13] is pea aphid. Briefly: Residual contact activity (7-day), pea aphid. In kind it is in vivo, Macrosiphum pisi. As to conditions: Acyrthosiphon pisum, 48 h, surface aged seven days, read-out: % Kill, pea aphid, Residual (7-day). The protocol:
as §1, §2

Data set [14] deals with two-spotted spider mite. Kind of data set: Residual contact activity (7-day), two-spotted spider mite. The format is in vivo. As to conditions: Tetranychus urticae, 48 h, surface aged seven days, read-out: % Kill, two-spotted spider mite, Residual (7-day). The protocol:
as §1, §2

Data set [15] has as its system milkweed bug. Kind of data set: Residual contact activity (7-day), milkweed bug. In kind it is in vivo, Oncopeltus fascinatus. The following applies: Oncopeltus fasciatus, 48 h, surface aged seven days, read-out: % Kill, milkweed bug, Residual (7-day). On the procedure: as §1, §2
The test system of data set [16] is plum curculio. Kind of data set: Residual contact activity (7-day), plum curculio. The following applies: Conotrachelus nenuphar, 48 h, surface aged seven days, read-out: % Kill, plum curculio, Residual (7-day). In kind it is in vivo. The protocol: as §1, §2
The test system of data set [17] is granary weevil. Briefly: Residual contact activity (7-day), granary weevil. The following applies: Sitophilus granarius, 48 h, surface aged seven days, read-out: % Kill, granary weevil, Residual (7-day). In kind it is in vivo. On the procedure: as §1, §2
Data set [18] has as its system confused flour beetle. Briefly: Residual contact activity (7-day), confused flour beetle. As to conditions: Tribolium confusum, 48 h, surface aged seven days, read-out: % Kill, confused flour beetle, Residual (7-day). The format is in vivo. The protocol: as §1, §2
Data set [19] relates to Mexican bean beetle. Briefly: Systemic insecticidal activity, soil-watering technique, Mexican bean beetle. The format is in vivo. As to conditions: Epilachna varivestis, 48 h, 25 ml to soil, infested after 3 days, counted 2 days later, read-out: % Kill, Mexican bean beetle, systemic.
Data set [20] has as its system southern army worm. Briefly: Systemic insecticidal activity, soil-watering technique, southern army worm. As to conditions: 156 ppm, 25 ml to soil, infested after 3 days, counted 2 days later. In kind it is in vivo, Prodenia eridania.
In data set [21] the test system is pea aphid. Kind of data set: Systemic insecticidal activity, soil-watering technique, pea aphid. The format is in vivo, Macrosiphum pisi. As to conditions: Acyrthosiphon pisum, 48 h, 25 ml to soil, infested after 3 days, counted 2 days later, read-out: % Kill, pea aphid, systemic.
Data set [22] concerns two-spotted spider mite. Briefly: Systemic insecticidal activity, soil-watering technique, two-spotted spider mite. The format is in vivo. As to conditions: Tetranychus urticae, 48 h, 25 ml to soil, infested after 3 days, counted 2 days later, read-out: % Kill, two-spotted spider mite, systemic.

For `CN(SN1CCOCC1)C(=O)Oc1cccc2c1OC(C)(C)C2` [II, 2,3-Dihydro-2,2-dimethyl-7-benzofuranyl (Methyl)(morpholinosulfenyl)carbamate], the LD50 in the data set with adult female houseflies is ~10.5 mg/kg. The LC50 in data set [1] turned out to be 0.048 µg/mL (≈ 0.142 µM). This compound gave an LD50 at 48 h in data set [2] of 10 to 20 mg/kg. Besides, the mortality at 1250 ppm in the data set with Mexican bean beetle [3] stood at 100%; with pea aphid [5], 100%; in the data set with two-spotted spider mite [6], 97%; in the data set on milkweed bug [7], 100%; in the data set with plum curculio [8] it was 100%; in the data set with granary weevil [9] it was 100%. In addition, the mortality at 1250 ppm was 100% with confused flour beetle [10]; 100% with Mexican bean beetle [11]; 100% with pea aphid [13]; 4% in the data set with two-spotted spider mite [14]; 100% with milkweed bug [15]; 100% in the data set on plum curculio [16]. For the same compound, the mortality at 1250 ppm with granary weevil [17] was 100%; with confused flour beetle [18], 0%. Also, the “% Kill, southern army worm, Initial” value in the data set with southern army worm [4] is listed as 100%. The “% Kill, southern army worm, Residual (7-day)” value with southern army worm [12] is given as 83%. The mortality at 156 ppm was determined as 100% in the data set with Mexican bean beetle [19], 100% with pea aphid [21] and 76% in the data set on two-spotted spider mite [22]. Also, the “% Kill, southern army worm, systemic” value in the data set on southern army worm [20] is 100%.
As to `CN(C)SN(C)C(=O)Oc1cccc2c1OC(C)(C)C2` [I, 2,3-Dihydro-2,2-dimethyl-7-benzofuranyl (Dimethylaminosulfenyl) (methyl)carbamate], the LD50 with adult female houseflies is ~15 mg/kg. In addition, the LC50 in [1] turned out to be 0.027 µg/mL (≈ 0.0911 µM). The LD50 at 48 h in data set [2] fell in the range of 10 to 20 mg/kg. Further, the mortality at 1250 ppm in the data set with Mexican bean beetle [3], in the data set on pea aphid [5], with two-spotted spider mite [6], in the data set with milkweed bug [7], in the data set with plum curculio [8] and with granary weevil [9] was 100% in each case. Further, the mortality at 1250 ppm in the data set on confused flour beetle [10] was 100%; in the data set on Mexican bean beetle [11], 95%; in the data set with pea aphid [13] it was 95%; in the data set on two-spotted spider mite [14] it was 3%; in the data set with milkweed bug [15], 100%; in the data set with plum curculio [16], 5%. For the same compound, the mortality at 1250 ppm with granary weevil [17] worked out at 63%; with confused flour beetle [18], 0%. Moreover, in the data set with southern army worm [4], the “% Kill, southern army worm, Initial” value is on record as 100%. Moreover, in the data set on southern army worm [12], the “% Kill, southern army worm, Residual (7-day)” value is 80%. Further, the mortality at 156 ppm turned out to be 100% with Mexican bean beetle [19], 100% in the data set on pea aphid [21] and 73% with two-spotted spider mite [22]. For the same compound, the “% Kill, southern army worm, systemic” value with southern army worm [20] amounted to 100%.
Take `CNC(=O)Oc1cccc2c1OC(C)(C)C2` [Carbofuran, 2,3-dihydro-2,2-dimethyl-7-benzofuranyl methylcarbamate]: the LD50 with adult female houseflies was ~6.7 mg/kg. Further, in [1], the LC50 came to 0.052 µg/mL (≈ 0.235 µM). Further, the LD50 at 48 h in data set [2] is ~2 mg/kg.

What is called LD50 is the dose expected to kill half of the subjects tested. Broadly, the LC50 is the concentration lethal to half of the exposed cells or organisms.
